Experimental data: US20170247645A1, “ENCAPSULATED FRAGRANCE MIXTURES” (Symrise AG, priority 2014, published 2017)

Columns and labels:
[1] = Odor threshold value (OTV) in air
From the text: The odor threshold is the threshold at which a fragrance or odorant is olfactorily perceived by an organism. The odor threshold value, OTV for short, is that minimum concentration of a particular gaseous, sensorily active substance in the surrounding medium that this lifeform is just able to perceive through its sense of smell. In the present invention, preference is given to fragrances having a (very) low odor threshold value. The lower this is, the lower the concentration at which the fragrance is then perceived.

[2] = log Kow (octanol/water partition coefficient); assay type: physicochemical; details: 1-octanol/water
From the text: In a further preferred embodiment, the individual fragrances of the fragrance mixture of the invention have a log Kow value of 1 to 10, preferably of 1.5 to 8, more preferably of 2 to 5.5.
The log Kow (octanol/water partition coefficient) is a measure of the lipophilicity of a substance. In terms of calculation, it is the partition coefficient Kow of a substance in a mixture of 1-octanol and water. Kow is greater than one when a substance has better solubility in fat-like solvents such as n-octanol, and less than one when it has better solubility in water. Correspondingly, log Kow is positive for lipophilic substances and negative for hydrophilic substances.

log Kow [2] | Structure (SMILES) | OTV [1] [ppm]
3.58 | CC(C)=C[C@H]1C[C@@H](C)CCO1 [Example 1, Rose oxide] | 0.5
3.55 | CC(C)=CCC[C@@H](C)CC#N [Example 3, citronellylnitrile] | 1
5.19 | CC(C)=CCCC1=CC[C@](C)(C=O)CC1 [Example 6, Pre-cyclemone B] | 0.5
 | C=CCOC(=O)COCCC(C)C [Example 7, Allyl amyl glycolate] | 0.1
2.86 | COc1nccnc1CC(C)C [Example 9, 2-Isobutyl-3-methoxypyrazine] | 0.1
3.55 | CCCCC/C=C\CCC=O [Example 10, cis-4-Decenal] | 0.2

Structure (SMILES) | log Kow [2] | OTV [1] [ppm]
CCOC(=O)[C@H]1O[C@@]1(C)c1ccccc1 [Example 2, Aldehyde C16] | 3 | 0.2
